Measured values published in patent US7632807B2, “Cyclosporin alkynes and their utility as pharmaceutical agents” (Albany Molecular Research, Inc., priority 2004, dated 2009).
≈ marks a conversion by molar mass, not a printed value. Entries after “also recorded” stand apart in the source; their conditions may differ.

What was measured:
[1] = system: concanavalin A-stimulated murine splenocytes; assay: Concanavalin A (ConA)-stimulated murine splenocyte assay; assay type: cell-based, mouse (BALB/c)
Experimental: Concanavalin A—Stimulated Splenocyte Assay
Male BALB/c mice, at 5 to 7 weeks of age, were sacrificed by CO2 inhalation. Spleens were removed and dissociated by pushing through a nylon cell strainer. The splenocytes were washed in RPMI 1640/5% fetal calf serum (FCS) and pelleted at 400×g. Red blood cells were then lysed by resuspending the cell pellet in ACK lysis buffer (150 mM NH4Cl, 1 mM KHCO3, 0.1 mM EDTA, 3 mL per spleen) for 10 min at room temperature. After pelleting at 400×g, the cells were washed by resuspending in RPMI 1640/5% FCS and repelleting. The cell pellet was resuspended in RPMI 1640/5% FCS and again passed through a cell strainer to remove cell aggregates. The cells were then counted and adjusted to 2×10^6 cells/ml in RPMI 1640/10% FCS/[…] 2-mercaptoethanol. Cell viability was assessed by Trypan blue staining. […] The cells were cultured in a 37° C. CO2 incubator for 2 days and then pulsed with 1 μCi of [^3H]thymidine for 6 hours. Cells were harvested onto filtermats with a TomTec 96 well plate harvester and lysed with H2O. The filtermat and scintillation fluid were sealed in a plastic sleeve. [^3H]thymidine incorporation was measured with a Wallac Trilux plate counter. Initial screens were done at a fixed value of 100 ng/ml test compound. IC50s were calculated from 7 point concentration-response curves using graphPad software.

[2] = literature value (Rich et al. 1990); cited from earlier work

Question: For C#CC#CC[C@@H](C)[C@@H](O)[C@H]1C(=O)N[C@@H](CC)C(=O)N(C)CC(=O)N(C)[C@@H](CC(C)C)C(=O)N[C@@H](C(C)C)C(=O)N(C)[C@@H](CC(C)C)C(=O)N[C@@H](C)C(=O)N[C@H](C)C(=O)N(C)[C@@H](CC(C)C)C(=O)N(C)[C@@H](CC(C)C)C(=O)N(C)[C@@H](C(C)C)C(=O)N1C [Example 25, cyclosporine diyne], which “immunosuppressive potency compared to cyclosporin A” value ([1]; FIG. 1, ConA-stimulated murine splenocyte assay) is on record?
Answer: enhanced or similar potency in immunosuppression; also recorded: two times more potent over cyclosporin A

Question: What about the “IC50” value ([1]; novel cyclosporin alkyne analogue, ConA-stimulated BALB/c splenocytes, [3H]thymidine incorporation, 7 point concentration-response curves) of the same molecule?
Answer: 0.012 µg/mL (≈ 9.91 nM)

Question: For CC#CC[C@@H](C)[C@@H](O)[C@H]1C(=O)N[C@@H](CC)C(=O)N(C)CC(=O)N(C)[C@@H](CC(C)C)C(=O)N[C@@H](C(C)C)C(=O)N(C)[C@@H](CC(C)C)C(=O)N[C@@H](C)C(=O)N[C@H](C)C(=O)N(C)[C@@H](CC(C)C)C(=O)N(C)[C@@H](CC(C)C)C(=O)N(C)[C@@H](C(C)C)C(=O)N1C [known cyclosporin alkyne], which “relative immunosuppressive activity, compared to cyclosporin A” value [2] is on record?
Answer: 10%
